Reference: ChEMBL document CHEMBL2046292, “The macrocycle of leinamycin imparts hydrolytic stability to the thiol-sensing 1,2-dithiolan-3-one 1-oxide unit of the natural product” (Bioorg Med Chem Lett, 2012)

Key:
Type in all cases: physicochemical
[1] = Half life of the compound at 70 uM in MOPS aqueous buffer (300 mM, pH 7.0) containing MeCN (25% v/v) at 24 degC in presence of 700 uM GSH by HPLC analysis; settings: pH 7, 70 µM
[2] = Half life of the compound at 70 uM in MOPS aqueous buffer (250 mM, pH 7.0) containing MeCN (25% v/v) at 24 degC by HPLC analysis; settings: pH 7, 70 µM
[3] = Half life of the compound at 100 uM in HEPES buffer (250 mM, pH 7.0) at 24 degC containing no organic solvent
[4] = Half life of the compound in sodium phosphate buffer (10 mM, pH 7.0) at 37 degC containing methanol (10% v/v)

| Compound | t1/2 [1] | t1/2 [2] | half-life at 100 µM [3] | half-life [4] |
| --- | --- | --- | --- | --- |
| CC1(C)[S+]([O-])SC(=O)[C@@]1(C)O (stereo partly drawn) | 0.0467 h | 0.883 h |  |  |
| CC1(C)[S+]([O-])SC(=O)[C@]1(C)O (stereo partly drawn) | 0.0633 h | 1.87 h |  |  |
| C/C1=C\[C@@H](O)C(=O)/C=C/C=C\c2csc(n2)[C@@H](C)NC(=O)C[C@@]2(CC1)[S+]([O-])SC(=O)[C@]2(C)O (stereo partly drawn) [LEINAMYCIN] | 0.173 h | 27 h | 16.1 h | 8 h |
